Read-outs that look alike come from different tables or passages of the source.
Experiments:
endogenous NMT = experiment: N-myr-GFP localization in transfected CV-1 cells (fluorescence microscopy); assay type: cell-based, monkey
Experimental: Cellular effects of COPP compounds. […] To determine their efficacy in intact cells, a novel assay was developed in which the N-terminus of enhanced green fluorescent protein (GFP) was modified to allow its myristoylation (N-myr-GFP) by endogenous NMT. To begin, the myristoylation sequence […] was added to the N-terminus of green fluorescent protein (N-myr-GFP) using techniques familiar to those practiced in the art. Since GFP is intrinsically fluorescent, the sites of its intracellular distribution can be visualized using fluorescence microscopy. When a plasmid containing the N-myr-GFP sequence is transfected into CV-1 cells, the GFP encoded by this construct is myristoylated by endogenous NMT causing it to localize to the plasma membrane, as indicated by the bright fluorescence at the cell periphery (FIG. 2). […] This method provides evidence that the inhibitors detected in the screen with recombinant NMT can also block endogenous NMT activity in whole cells.

[1] = system: T24 human bladder carcinoma cells; experiment: Cytotoxicity assay, sulforhodamine B binding; details: T-24, 48 h, read-out: Cytotoxicity IC50
Experimental: To determine the abilities of NMT inhibitors to affect the growth of hyperproliferative cells, cytotoxicity assays were performed using the T24 human bladder carcinoma cell line. […] In these assays, T24 cells growing in tissue culture in the presence of 10% fetal bovine serum are treated with varying concentrations of a test compound for 48 hours. At the end of the treatment period, the number of surviving tumor cells is quantified using any of a variety of methods well known in the field. In these, experiments, the number of surviving cells was determined using the sulforhodamine B binding assay.

recombinant human NMT [2] = molecular target: T1, recombinant human NMT (Homo sapiens, UniProt P30419); experiment: NMT screening assay with purified recombinant GST-NMT-1, [3H]-myristoyl-CoA and biotinylated peptide
T1 sequence (P30419 1-496): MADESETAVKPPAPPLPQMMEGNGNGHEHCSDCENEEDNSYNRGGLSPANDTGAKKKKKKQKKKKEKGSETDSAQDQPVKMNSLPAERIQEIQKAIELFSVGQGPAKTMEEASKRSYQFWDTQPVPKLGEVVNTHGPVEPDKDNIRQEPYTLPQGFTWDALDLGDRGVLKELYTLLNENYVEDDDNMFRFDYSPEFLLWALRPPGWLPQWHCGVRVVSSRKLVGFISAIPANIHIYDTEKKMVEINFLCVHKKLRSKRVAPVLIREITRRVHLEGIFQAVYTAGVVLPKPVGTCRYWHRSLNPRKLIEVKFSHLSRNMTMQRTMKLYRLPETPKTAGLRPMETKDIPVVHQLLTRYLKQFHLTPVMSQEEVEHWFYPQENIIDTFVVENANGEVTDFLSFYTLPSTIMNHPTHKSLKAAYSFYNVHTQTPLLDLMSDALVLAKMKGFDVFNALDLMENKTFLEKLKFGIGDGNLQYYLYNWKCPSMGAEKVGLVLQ
Experimental: Development of the NMT screening assay. […] The cDNA encoding enzymatically active human NMT-1 was subcloned into the pGEX bacterial expression evector, producing an NMT-glutathione-S-transferase4 (GST) fusion protein. This protein was expressed in E. coli using methods well known to those trained in the art, purified using a glutathione resin, and stored at −80° C. until use. Enzyme activity was measured using the recombinant NMT, a peptide of the sequence [sequence]-biotin, wherein amino acids are designated by their recognized single letter code and the terminal lysine residue is conjugated with biotin, [^3H]-myristoyl-CoA, and a test compound or the solvent alone (DMSO). Reaction mixtures are incubated for a specific period of time in 96-well plates coated with streptavidin, which may be purchased from commercial sources including Sigma Chemical Company. […] The streptavidin-biotin interaction can then be disrupted with the addition of 0.1 M glycine, pH 2.8, and the solution containing [^3H]myristoyl-peptide can be transferred to scintillation vials. Alternately, determination of the amount of [^3H]myristoyl-peptide in the samples can be determined using scintillation proximity technology according to methods well known to those who practice the art.
Each compound was tested at a final concentration of 5 μg/ml, which corresponds to concentrations of 10-20 μM. Samples that inhibited NMT activity by at least 60% were then deconvoluted, where each of the 8 compounds was analyzed individually.

[3] = system: panel of human tumor cell lines; experiment: Proliferation of a panel of human tumor cell lines (summary); assay type: cell-based; details: range over the 8 cell lines of TABLE 3, read-out: IC50s across the tumor cell line panel
Experimental: (§1) Antiproliferative effects of compound 537.
(§2) Additionally, the effects of compound 537 on the proliferation of a panel of human tumor cell lines were determined. […] Of interest, colon-derived HT29 cells were most sensitive to compound 537, and previous work has indicated a close association of activation of Src (which requires myristoylation for activity) and colon cancer (Raju et al., Exp. Cell Res. 235: 145 (1997)).

GST-hNMT-1 = molecular target: T2, GST-hNMT-1 (Homo sapiens, UniProt P30419); experiment: Peptide and myristoyl-CoA substrate competition experiments (Michaelis-Menten); assay type: biochemical
T2 construct: made in house; host or cells: E. coli
T2 sequence (P30419 1-496): T1 sequence (P30419 1-496)
Experimental: Development of the NMT screening assay.
Mechanism of inhibition of NMT by COPP compounds. The mechanism of inhibition by compound 537 was examined using peptide and myristoyl-CoA substrate competition experiments with GST-hNMT-l. In the absence of inhibitor, the KM for myristoyl-CoA compares very well with the literature value of 2.6 μM (Rocque et al., J Biol. Chem. 268: 9964 (1993)). […] However, it is well established that the affinity for the peptide is highly sequence-sensitive, so that KMS >100 μM are not unusual. For studies of the ability of compound 537 to interact with the peptide-binding site of NMT, the peptide concentration was varied from 0 to 500 μM, while the myristoyl-CoA concentration was kept constant in the assays. The presence of compound 537 at its IC50 concentration […] the KM for the peptide relative to the solvent control. […] To determine the effects of compound 537 on the myristoyl-CoA binding site, the concentration of myristoyl-CoA was varied from 0 to 100 μM, while the peptide concentration was held constant in the assays. […] Overall, these kinetic analyses indicate that compound 537, and most likely the rest of the COPP family, inhibit NMT activity by competing with the substrate peptide for binding to the enzyme.

MCF-7 = experiment: Antiproliferative activity toward human tumor cell lines; assay type: cell-based; details: MCF7, MCF-7, Breast, mean ± SEM of 4 experiments
Experimental: as §1, §2

HepG2 = experiment: as above; assay type: cell-based; details: HepG2, Liver, mean ± SEM of 4 experiments
Experimental: as §1, §2

HT29 = experiment: as above; assay type: cell-based; details: HT-29, HT29, Colon, mean ± SEM of 4 experiments
Experimental: as §1, §2

SKOV3 = experiment: as above; assay type: cell-based; details: SK-OV-3, SKOV3, Ovary, mean ± SEM of 4 experiments
Experimental: as §1, §2

MDA-MB-231 = experiment: as above; assay type: cell-based; details: MDA-MB-231, Breast, mean ± SEM of 4 experiments
Experimental: as §1, §2

DU145 = experiment: as above; assay type: cell-based; details: DU-145, DU145, Prostate, mean ± SEM of 4 experiments
Experimental: as §1, §2

A-498 = experiment: as above; assay type: cell-based; details: A498, A-498, Kidney, mean ± SEM of 4 experiments
Experimental: as §1, §2

Panc-1 = experiment: as above; assay type: cell-based; details: Panc-1, Pancreas, mean ± SEM of 4 experiments
Experimental: as §1, §2

recombinant human NMT [4] = molecular target: T1, recombinant human NMT; design: made in house; host or cells: E. coli; details: published value (Boutin et al. 1991); read-out: published IC50 concentration for NMT; cited from earlier work

| SMILES | IC50 [1] [µM] | IC50 (recombinant human NMT [2]) [µM] | other results |
| --- | --- | --- | --- |
| CCCCCCCCCCCCC(O)C(=O)O (stereo not drawn) [2-hydroxymyristic acid, reference compound] |  |  | intracellular distribution of N-myr-GFP (endogenous NMT; millimolar concentrations): redistribution of GFP to the cytosol |
| COc1ccc(CN2CCN3CCCC3C2C2CCCCC2)cc1 (stereo not drawn) [Compound 486] | 8.1 | 419 ± 30 |  |
| c1cncc(N2CCN3CCCC3C2C2CCCCC2)c1 (stereo not drawn) [Compound 522] | 400 | 590 ± 127 |  |
| CCn1c2ccccc2c2cc(CN3CCN4CCCC4C3C3CCCCC3)ccc21 (stereo not drawn) [Compound 537] | 1.8 | 6 | IC50 [3]: 3.7 to 14.8 µM; intracellular distribution of N-myr-GFP (endogenous NMT; micromolar concentrations): displacement of N-myr-GFP to the cytosol; Peptide Vmax (GST-hNMT-1; in presence of compound at its IC50 concentration, peptide varied 0 to 500 μM, myristoyl-CoA constant): 0.076 ± 0.006 pmol/min; Myristoyl-CoA Vmax (GST-hNMT-1; in presence of compound, myristoyl-CoA varied 0 to 100 μM, peptide constant): 0.034 ± 0.001 pmol/min; mechanism of inhibition with respect to the lipid substrate (GST-hNMT-1; myristoyl-CoA competition): noncompetitive inhibitor; mechanism of inhibition with respect to the peptide substrate (GST-hNMT-1; peptide competition): competitive inhibitor; IC50 (MCF-7): 8 ± 0.9 µM; IC50 (HepG2): 4.4 ± 1.2 µM; IC50 (HT29): 3.7 ± 0.6 µM; IC50 (SKOV3): 13.2 ± 3.6 µM; IC50 (MDA-MB-231): 11.9 ± 1.3 µM; IC50 (DU145): 14.8 ± 2.9 µM; IC50 (A-498): 5.8 ± 1.4 µM; IC50 (Panc-1): 12.6 ± 1.3 µM |
| c1ccc2cc(N3CCN4CCCC4C3C3CCCCC3)ccc2c1 (stereo not drawn) [Compound 542] | 1.3 | 42 ± 5 |  |
| Brc1csc(CN2CCN3CCCC3C2C2CCCCC2)c1 (stereo not drawn) [Compound 555] | 1.2 | > 8000 |  |
| Cc1ccc2occ(CN3CCN4CCCC4C3C3CCCCC3)c(=O)c2c1 (stereo not drawn) [Compound 591] | 9.7 | > 8000 |  |
| O=[N+]([O-])c1ccccc1-c1ccc(CN2CCN3CCCC3C2C2CCCCC2)o1 (stereo not drawn) [Compound 615] | 1.4 | 45 ± 2 |  |
| O=[N+]([O-])c1cccc(-c2ccc(CN3CCN4CCCC4C3C3CCCCC3)o2)c1 (stereo not drawn) [Compound 616] | 2.1 | 41 ± 1 |  |
| O=[N+]([O-])c1ccc(-c2ccc(CN3CCN4CCCC4C3C3CCCCC3)o2)cc1 (stereo not drawn) [Compound 617] | 4.6 | 36 ± 4 |  |
| COc1ccc(CN2CCN3CCCC3C2C2CCCCC2)c2ccccc12 (stereo not drawn) [Compound 621] | 0.7 | 35 ± 5 |  |
| COc1ccc2ccccc2c1CN1CCN2CCCC2C1C1CCCCC1 (stereo not drawn) [Compound 622] | 1.5 | 28 ± 8 |  |
| C1CCC(C2C3CCCN3CCN2C2CCCCC2)CC1 (stereo not drawn) [Compound 624] | 1.6 | 113 ± 7 |  |
| c1cc2ccc3ccc(CN4CCN5CCCC5C4C4CCCCC4)c4ccc(c1)c2c34 (stereo not drawn) [Compound 629] | 3 | 70 ± 8 |  |
| CC1=C(CCN2CCN3CCCC3C2C2CCCCC2)C(C)(C)CCC1 (stereo not drawn) [Compound 638] | 1.4 | 43 ± 4 |  |
| COc1ccccc1/C=C/CN1CCN2CCCC2C1C1CCCCC1 (stereo not drawn) [Compound 640] | 2.8 | 1600 ± 200 |  |
| CC1C2CCCN2CCN1Cc1cccc(Oc2ccc(Cl)cc2)c1 (stereo not drawn) [Compound 726, 2-[3-(4-chloro-phenoxy)-benzyl]-1-methyl-octahydro-pyrrolo[1,2-a]pyrazine] | 1.5 | 40 ± 6 |  |
| CC1C2CCCN2CCN1Cc1c2ccccc2c(Cl)c2ccccc12 (stereo not drawn) [Compound 766] | 4.2 | 47 ± 7 |  |
| CCCCCCCCCCCCCC(=O)N[C@@H](Cc1ccccc1)C(=O)O [myristoylphenylalanine, reference compound] |  |  | IC50 (recombinant human NMT [4]): 100 µM; inhibition at 100 µM (recombinant human NMT [2]; read-out: inhibition of recombinant human NMT): ~50% |

Source: patent publication US20040014764A1, “N-myristoyltransferase inhibitor compositions and methods of use” (priority 2002, published 2004)
